For experiment [1], the target named is CXCR4 (Homo sapiens, UniProt P61073). The following applies: 1p M AMD3465 beginning at day 0 of iDiscoid culture; day 5. As to the method: (§1) Signaling Pathway Inhibition. BMP4 signaling was inhibited via application of 3 μM Dorsomorphin into the normal media at day 3 of iDiscoid culture. NODAL signaling was inhibited via application of 10 μM SB431542 beginning at day 2 of iDiscoid culture. CXCR4 signaling was inhibited via application of 1p M AMD3465 beginning at day 0 of iDiscoid culture.

In experiment [2] the test system is iGATA6 cells. Nature of the experiment: Dox induction of GATA6 gene circuit in iGATA6 hiPSCs. Format: cell-based, human. As to conditions: after treatment with Dox. As to the method:
Generation of iDiscoid. The GATA6-engineered hiPSCs were seeded at a ratio of 4:1 with rtTA expressing hiPSCs either containing or lacking an mKate reporter gene at a total density of 25,000 cells per cm^2 in mTeSR-1 supplemented with […] Y-27632. The next day, the medium was changed to mTeSR-1 with […] doxycycline to induce expression of the GATA6 transgene and replaced daily for up to 5 days.
Time lapse Imaging. iGATA6 cells were seeded at 25,000 cells per cm^2 in a Cellstar 24-well tissue culture treated plate coated […], then induced with 1,000 ng ml^−1 Dox. After induction, the cells were placed under an Incucyte S3 live cell imaging platform at 37C and 5% CO2. Images were taken every 30 min for 3 days.

Experiment [3] has as its system NODAL signaling. In words: Day 4 scRNAseq of iDiscoid after SB431542 application at day 2. Format: cell-based, human.
For experiment [4], the system named is NODAL signaling. Nature of the experiment: NODAL signaling inhibition in iDiscoid culture, immunofluorescence. As to conditions: 10 μM SB431542 beginning at day 2 of iDiscoid culture. Format: cell-based, human. As to the method:
as §1
Staining on glass coverslips. Cells were grown on Matrigel-coated 8 mm diameter circular glass coverslips or on Mattek 35 mm coverslip bottom dishes. Cultures were fixed for 10 minutes in 4% paraformaldehyde (Electron Microscopy Sciences) at room temperature. For toluidine blue staining in FIG. 12B, cells were fixed for 1 hour in 2.5% glutaraldehyde in 0.01M PBS, pH 7.4, at room temperature. Coverslips were then washed three times with PBS followed by 15 minutes permeabilization with 0.2% Triton X-100 in PBS. Subsequently the coverslips were washed three times in washing buffer (0.05% Tween-20 in PBS) for 5 minutes and blocked for 20 minutes in […] wash buffer plus 5% normal donkey serum (Jackson ImmunoResearch Laboratories). The primary antibodies were diluted in 5% normal donkey serum in PBS and incubated with the tissues […] at room temperature followed by three washes in wash buffer for 5 minutes each. The secondary antibodies were diluted in 5% normal donkey serum in PBS and incubated with the tissues 1 hour at room temperature followed by three washes in wash buffer for 5 minutes each. Afterwards, the 8 mm coverslips were mounted on microscopy glass slides using ProLong Glass Antifade (Life Technologies), cured overnight at room temperature and then sealed with nail polish. Coverslips in Mattek dishes were stored in PBS at 4° C. for 3D imaging prior to mounting.
Image Acquisition and Processing. Images were acquired using the EVOS M700 automated scanning microscope, Leica SP8 confocal microscope, or Nikon A1 Confocal microscope and processed using ImageJ software (NIH). Any contrast adjustments were made in individual channels and applied evenly across the whole image in that channel. Contrast and color balance for color images was applied evenly across the whole image. 3D reconstructions were generated using the Nikon A1 confocal microscope to generate z-stacks spanning ˜100 um deep into the tissues and using ImageJ or Imaris (Bitplane) to construct a 3D volume from the stacks.

Experiment [5] deals with T1, NODAL (Homo sapiens, UniProt Q96S42).
T1 sequence (Q96S42 238-347): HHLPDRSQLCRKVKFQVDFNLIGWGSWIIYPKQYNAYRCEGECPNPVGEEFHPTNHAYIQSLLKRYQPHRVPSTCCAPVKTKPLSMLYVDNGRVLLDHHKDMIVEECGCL
As to conditions: cited from earlier work.

For experiment [6], the target named is T2, BMP4 (Homo sapiens, UniProt P12644).
T2 sequence (P12644 293-408): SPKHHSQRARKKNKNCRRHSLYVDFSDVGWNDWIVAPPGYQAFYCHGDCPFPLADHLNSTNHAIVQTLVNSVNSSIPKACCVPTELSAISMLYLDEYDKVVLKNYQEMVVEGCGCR
The following applies: cited from earlier work.

The target of experiment [7] is T3, BMP2 (Homo sapiens, UniProt P12643).
T3 sequence (P12643 283-396): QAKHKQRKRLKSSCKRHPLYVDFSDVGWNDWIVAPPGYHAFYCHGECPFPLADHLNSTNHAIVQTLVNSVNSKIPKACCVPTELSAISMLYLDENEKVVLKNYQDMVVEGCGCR
As to conditions: cited from earlier work.

The mark [8] stands for this setting: day 4, SB431542 applied at day 2.

Sequence of CXCR4 (P61073 whole entry): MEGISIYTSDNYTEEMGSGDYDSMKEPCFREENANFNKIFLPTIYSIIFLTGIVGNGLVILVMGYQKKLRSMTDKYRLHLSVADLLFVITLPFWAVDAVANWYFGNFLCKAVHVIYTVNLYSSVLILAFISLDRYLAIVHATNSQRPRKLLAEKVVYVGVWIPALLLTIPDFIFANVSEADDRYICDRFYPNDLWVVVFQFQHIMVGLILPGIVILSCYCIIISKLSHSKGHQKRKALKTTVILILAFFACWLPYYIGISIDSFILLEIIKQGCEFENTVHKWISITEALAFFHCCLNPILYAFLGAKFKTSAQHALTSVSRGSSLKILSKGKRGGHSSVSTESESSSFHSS

With `c1ccc(CNCc2ccc(CN3CCCNCCNCCCNCC3)cc2)nc1` [AMD3465], the “upward migration and contiguous iGATA6 membrane formation” value in experiment [1] was “substantially inhibits”.
For `C[C@H]1c2cccc(O)c2C(=O)C2=C(O)[C@]3(O)C(=O)C(C(N)=O)=C(O)[C@@H](N(C)C)[C@@H]3[C@@H](O)[C@@H]21` [Dox, Doxycycline], in experiment [2], the “EGFP expression in iGATA6 cells” value was “upregulate” and the “pluripotency marker NANOG in iGATA6 cells” value is listed as “loss”.
In the case of `NC(=O)c1ccc(-c2nc(-c3ccc4c(c3)OCO4)c(-c3ccccn3)[nH]2)cc1` [SB431542], in experiment [3] (SB431542 added to the media), the “system state after addition to the culture media” value is “acquire and maintain a state similar to early human and primate amnion”. Moreover, in experiment [3] (setting [8]), the “NANOG expression within the WT (scRNAseq)” value is “lost”; the “pluripotency markers SOX2 and OCT4 within the WT (scRNAseq)” value is recorded as “retained”. Also, in experiment [3] (day 4, SB431542 applied at day 2, alongside CDX2, GATA3, AP-2γ), the “expression of the amnion marker ISL1 (scRNAseq)” value was “present in cluster 2”. Further, in experiment [4], the “ISL1-expressing cells within iDiscoids / ISL1 expression” value is on record as “lost”, the “cavity formation / cavity morphology” value was “maintained” and the “expression of NANOG within the WT clusters” value is on record as “lost”. In experiment [4] (listed as SB431542), the “ISL1-expressing cells within iDiscoids / ISL1 expression” value is “substantial elimination” and the “cavity formation / cavity morphology” value was “preserved”. In experiment [4] (listed as SB431562), the “expression of NANOG within the WT clusters” value is recorded as “substantially decreased”.

B1: human CER1: human Cerberus ortholog, cerberus 1 (CER1) polypeptide (protein, UniProt O95813 18-267, looked up)
Cerberus: TRHQDGRQNQSSLSPVLLPRNQRELPTGNHEEAEEKPDLFVAVPHLVATSPAGEGQRQREKMLSRFGRFWKKPEREMHPSRDSDSEPFPPGTQSLIQPIDGMKMEKSPLREEAKKFWHHFMFRKTPASQGVILPIKSHEVHWETCRTVPFSQTITHEGCEKVVVQNNLCFGKCGSVHFPGAAQHSHTSCSHCLPAKFTTMHLPLNCTELSSVIKVVMLVEECQCKVKTEHEDGHILHAGSQDSFIPGVSA
Turning to B1, the “affinity for NODAL” value in experiment [5] is “high affinity”. Further, the “affinity for BMP4” value in experiment [6] is given as “minimal affinity”. The “affinity for BMP2” value in experiment [7] is listed as “minimal affinity”.

The values above are taken from US20250340847A1, “CELL CULTURE SYSTEM, USES THEREOF AND CELLS DERIVED THEREFROM” (UNIVERSITY OF PITTSBURGH-OF THE COMMONWEALTH SYSTEM OF …, priority 2022, published 2025).
